Test results from patent US8946249B2, “Compound, certain novel forms thereof, pharmaceutical compositions thereof and methods for preparation and use” (Hutchinson Medipharma Limited, priority 2009, dated 2015).

Experiments:
hERG channels = biological target: T1, hERG channels (Homo sapiens, UniProt Q12809); test: hERG whole-cell patch clamp in CHO cells stably transfected with hERG cDNA; type: cell-based; settings: CHO cells expressing hERG, tail current; read-out: hERG current inhibition IC50
T1 construct: expressed in transfected cells; host or cells: CHO
Procedure: A CHO cell line stably transfected with hERG cDNA and expressing hERG channels was used for the study. Cells were cultured in a medium comprising:
Before testing, cells were harvested using an Accumax (Innovative Cell Technologies).
Whole-cell recording was performed using a 700B (Axon Instruments). The cells were voltage clamped at a holding potential of −80 mV. The hERG current was activated by depolarizing at +20 mV for 2 sec, after which the current was taken back to −50 mV for 2 sec to remove the inactivation and observe the deactivating tail current. The first step at −50 mV was used as a baseline for measuring the tail current peak amplitude.
Test compound was prepared as a 10 mM DMSO stock solution in a glass vial. The stock solution was mixed vigorously for 10 minute at room temperature. The stock solution was diluted in a glass vial using External Solution; the dilution was prepared no longer than 30 minutes before use. Equal amounts of DMSO (0.1%) were present at final dilution.
After achieving whole-cell configuration, the cells were monitored for 90 sec to assess stability and washed with external solution for 66 sec. The voltage protocol described above was then applied to the cells every 20 sec throughout the whole procedure. […]
Data were analyzed using Clampfit (both by Axon Instruments) and Origin 7 (Originlab Corporation).

FGFR1 kinase = biological target: T2, FGFR1 kinase (Homo sapiens, UniProt P11362); test: FGFR1 kinase activity assay, Transcreener FP; type: biochemical; settings: 10 μM ATP, 60 minutes, room temperature
T2 construct: purchased Invitrogen PV3146
Procedure: The Transcreener FP technology of Bellbrook Labs is used in the FGFR1 kinase activity assay. The kinase reaction was done in 96-well half area black plate (Greiner, Cat. 675076). In each well, were added 5 μL of test compounds in 5% DMSO, 10 μL of 0.3 ng/μL FGFR1 kinase (Invitrogen, PV3146) diluted in assay buffer. The reaction was started by the addition of 10 of 62.5 ng/μL poly (Glu:Tyr, 4:1) substrate (Sigma, P0275) and 25 μmol/L of ATP mixture, and incubated for 60 minutes at room temperature. The final conditions for kinase assay were: 10 μM of ATP, 0.12 ng/μL of FGFR1 kinase, 25 ng/μL of substrate, 53.6 mmol/L of HEPES (pH 7.5), 21.6 mmol/L of MgCl2, 0.536 mmol/L of MnCl2, 1 mmol/L of DTT and 0.01% Triton X-100, 1% DMSO.
At the same time, an ADP standard curve was performed. The standard curve mimics a kinase reaction in the absence of test compound, kinase, and lipid substrate. The standard curve contained 12 concentration points, and total [ATP+ADP] ranged from 10 μM to 0.01 μM. […]
After reacting for 60 minutes at room temperature, 25 μL of transcreener Kinase Kit reagent—ADP Detection Mix—(Bellbrook Labs) was added and reacted for an additional 1.0 hours. The plates were then read in Tecan Infinite F500 at an excitation of 610 nm and an emission of 670 nm. […] The inhibition of test compound on ADP production was calculated based on ADP concentration calculated from standard curve. […]

[1] = biological target: T3, recombinant human KDR catalytic domain (Homo sapiens, UniProt P35968); test: KDR kinase inhibition, Z'-LYTE assay kit; type: biochemical; settings: 10 μM ATP, 1 μM Tyr1 peptide, 25° C., 1 hour
T3 construct: 300 ng/mL of recombinant human KDR catalytic domain
Procedure: The KDR kinase inhibition activity of the above three compounds is tested using the Z-Lyte assay kit.
Z′-LYTE™ Tyr1 peptide (Invitrogen, Cat. PV3190) is used to test the KDR kinase inhibitory activity of the above three compounds. The testing system contains 300 ng/mL of recombinant human KDR catalytic domain, 10 μM of ATP, 1 μM of substrate peptide, and a test compound at a series of different concentrations in 384-well plate (Thermo Labsystems, Cat. 7805); total volume is 10 μL. The enzymatic inhibition proceeds at room temperature (25° C.) for 1 hour on the shaker, followed by addition of 5 μL of enhancer and incubation for an additional 1 hour at room temperature on the shaker. 5 μL of stop solution is added to stop the reaction. The KDR kinase inhibition activity of a test compound is calculated based on the method recommended by the manufacturer. The IC50 values of the KDR kinase inhibition activity are calculated using XLfit software.
(1) Dilution of the test compounds: each of the above three compounds is dissolved in DMSO to prepare a […] stock solution and stored in −20° C. freezer. The stock solution is diluted to the four times concentration of the desired test concentration with 8% DMSO before use. […]
(7) Kinase inhibition: Add the following components in turn in a 384-well plate. […] Seal the plate with aluminum foil and allow the reaction to proceed at room temperature (25° C.) for 1 hour on the shaker (250 rpm). • e) Dilution of enhancer solution (right before use): according to the recommendation of manufacturer, dilute enhancer stock with development dilution buffer 128-fold. • f) Fluorescence enhancement: add 5 μL/well of the diluted enhancer solution in all wells, briefly spin at 1000 rpm, re-seal the plate and let the reaction proceed at room temperature for an additional hour on the shaker. • g) Add 5 μL/well of stop solution to all wells, briefly spin at 1000 rpm. Mix at room temperature for 2 minutes on the shaker, and read florescence signals on Victor3 (Perkin Elmer) at excitation 400 nm, emission 445 nm/530 nm. […]

[2] = Pharmacokinetics study in mice; type: in vivo; settings: male, ICR; mouse plasma, single oral dose 10 mg/kg
Procedure: Experimental Method: The pharmacokinetics of the test compounds were studied with male ICR mice (n=6 for each group, weight 20˜30 g) after a single intraveneous (i.v.) and oral (p.o.) dosing at 2.5 and 10 mg/kg, respectively. For i.v. dosing formulation, the test compound was dissolved in DMSO (0.25%)-solutol (10%)-ethanol (10%)-physiological saline (79.75%) at the concentration of 0.25 mg/mL. And the p.o. dosing formulation (1 mg/mL) was prepared with 0.5% CMC-Na. After i.v. or p.o. dosing, blood samples were collected via the ophthalmic vein at 0 (pre-dose), 5, 15, 30 min and 1, 1.5, 2, 4, 8, 24 h, anti-coagulated with heparin-Na. After centrifugation, plasma samples were separated and protein precipitated with acetonitrile (containing internal standard). The concentration of the testing compounds in these plasma samples were then determined by LC/MS/MS.

[3] = Thermodynamic stability comparison, slurry of Form I and Form II mixture; type: physicochemical; settings: 1 g each of Form I and Form II in 10 mL methanol, 60° C., 20 h, powder X-ray diffraction
Excerpt: Then the suspension was filtered with a Buchner funnel and paper disk, and dried under a vacuum oven.

[4] = Hygroscopicity, saturated salt solution method; type: physicochemical; settings: 10 days, 25° C.; for Stability under the testing humidity conditions: crystalline form unchanged; for Hygroscopicity (in words): saturated NaCl solution
Procedure: The desiccator was closed and left standing for 10 days at 25° C. Then the samples were taken out and weighed again, and the weight gain was calculated.

T3 sequence (P35968 834-1162 limits assumed): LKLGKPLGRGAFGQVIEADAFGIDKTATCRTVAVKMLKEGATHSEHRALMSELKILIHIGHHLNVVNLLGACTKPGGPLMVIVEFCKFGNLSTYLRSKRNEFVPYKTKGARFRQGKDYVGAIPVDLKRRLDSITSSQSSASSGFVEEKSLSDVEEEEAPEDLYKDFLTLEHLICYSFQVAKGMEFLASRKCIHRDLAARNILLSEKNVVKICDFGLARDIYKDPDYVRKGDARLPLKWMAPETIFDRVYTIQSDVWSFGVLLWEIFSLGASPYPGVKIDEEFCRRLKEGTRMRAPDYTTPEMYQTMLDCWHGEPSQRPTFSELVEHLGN
T1 sequence (Q12809 whole entry): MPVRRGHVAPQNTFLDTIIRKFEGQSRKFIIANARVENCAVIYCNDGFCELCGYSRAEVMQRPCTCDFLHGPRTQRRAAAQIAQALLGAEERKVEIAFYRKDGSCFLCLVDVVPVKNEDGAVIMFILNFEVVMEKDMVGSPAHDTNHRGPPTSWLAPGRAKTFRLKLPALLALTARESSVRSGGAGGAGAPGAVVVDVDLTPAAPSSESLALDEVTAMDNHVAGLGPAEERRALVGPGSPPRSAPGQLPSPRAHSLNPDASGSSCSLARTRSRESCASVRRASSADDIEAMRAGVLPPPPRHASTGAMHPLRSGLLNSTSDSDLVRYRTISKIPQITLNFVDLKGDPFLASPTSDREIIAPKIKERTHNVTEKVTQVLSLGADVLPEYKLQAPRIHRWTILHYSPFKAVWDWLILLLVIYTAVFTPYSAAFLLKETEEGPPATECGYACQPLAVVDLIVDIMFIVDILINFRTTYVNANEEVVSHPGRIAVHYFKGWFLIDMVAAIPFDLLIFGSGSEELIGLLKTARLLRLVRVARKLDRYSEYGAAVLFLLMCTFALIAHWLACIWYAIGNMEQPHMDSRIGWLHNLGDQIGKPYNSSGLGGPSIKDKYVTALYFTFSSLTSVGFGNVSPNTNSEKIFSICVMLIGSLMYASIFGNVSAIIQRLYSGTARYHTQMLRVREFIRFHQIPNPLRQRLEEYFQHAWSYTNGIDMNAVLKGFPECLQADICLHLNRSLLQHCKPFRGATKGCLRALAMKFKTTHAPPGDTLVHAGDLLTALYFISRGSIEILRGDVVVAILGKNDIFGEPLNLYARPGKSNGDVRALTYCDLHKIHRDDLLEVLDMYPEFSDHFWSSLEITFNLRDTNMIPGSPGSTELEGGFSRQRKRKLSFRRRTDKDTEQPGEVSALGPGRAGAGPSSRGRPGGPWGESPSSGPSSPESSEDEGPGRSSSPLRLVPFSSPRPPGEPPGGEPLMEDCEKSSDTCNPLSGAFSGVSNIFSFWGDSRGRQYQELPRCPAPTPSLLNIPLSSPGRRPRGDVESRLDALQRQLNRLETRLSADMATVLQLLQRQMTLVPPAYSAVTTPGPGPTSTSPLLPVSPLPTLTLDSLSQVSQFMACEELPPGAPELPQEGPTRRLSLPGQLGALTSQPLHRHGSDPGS
T2 sequence (P11362 22-822): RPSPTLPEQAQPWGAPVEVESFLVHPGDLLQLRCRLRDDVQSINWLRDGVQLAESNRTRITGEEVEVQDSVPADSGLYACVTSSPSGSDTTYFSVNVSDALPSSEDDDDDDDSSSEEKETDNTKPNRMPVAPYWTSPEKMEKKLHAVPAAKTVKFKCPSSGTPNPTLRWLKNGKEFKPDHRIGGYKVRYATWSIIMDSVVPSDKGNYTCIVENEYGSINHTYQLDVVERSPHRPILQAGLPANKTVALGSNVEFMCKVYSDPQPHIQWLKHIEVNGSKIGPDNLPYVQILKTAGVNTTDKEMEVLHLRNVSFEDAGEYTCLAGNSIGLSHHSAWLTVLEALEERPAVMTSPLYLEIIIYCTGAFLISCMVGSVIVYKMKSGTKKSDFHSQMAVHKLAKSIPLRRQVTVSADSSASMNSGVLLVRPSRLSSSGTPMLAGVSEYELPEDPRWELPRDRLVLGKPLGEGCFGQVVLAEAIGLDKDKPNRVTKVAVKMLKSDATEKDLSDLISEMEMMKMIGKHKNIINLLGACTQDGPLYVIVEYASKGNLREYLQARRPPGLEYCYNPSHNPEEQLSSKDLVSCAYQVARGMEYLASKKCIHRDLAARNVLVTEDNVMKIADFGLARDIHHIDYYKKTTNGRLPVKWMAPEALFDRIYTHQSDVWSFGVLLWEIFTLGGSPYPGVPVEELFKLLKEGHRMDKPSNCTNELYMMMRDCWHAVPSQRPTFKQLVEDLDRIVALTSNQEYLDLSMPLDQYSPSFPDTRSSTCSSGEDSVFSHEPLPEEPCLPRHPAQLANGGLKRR

SMILES | IC50 (hERG channels) | IC50 (FGFR1 kinase) | IC50 [1] | AUC [2] | Cmax [2] | Thermodynamic stability, form after slurry [3] | Stability under the testing humidity conditions [4] | Hygroscopicity (in words) ([4]; listed as Form I sample) | Hygroscopicity (in words) [4]
Cc1cc2cc(Oc3ccnc(Nc4cccc(CS(=O)(=O)NCCN(C)C)c4)n3)ccc2[nH]1 [Compound A, N-(2-(dimethylamino)ethyl)-1-(3-((4-((2-methyl-1H-indol-5-yl)oxy)pyrimidin-2-yl)amino)phenyl)-methanesulfonamide] | 6800 nM | 53 nM | 21 nM | 397 ng·h/mL | 138 ng/mL |  |  |  | 
CNS(=O)(=O)Cc1cccc(Nc2nccc(Oc3ccc4[nH]c(C)cc4c3)n2)c1 [Compound B, N-methyl-1-(3-((4-((2-methyl-1H-indol-5-yl)oxy)pyrimidin-2-yl)amino)phenyl)methanesulfonamide, reference compound] |  |  | 38 nM | 26 ng·h/mL | 20 ng/mL |  |  |  | 
Cc1cc2cc(Oc3ccnc(Nc4cccc(CS(=O)(=O)NCCN(C)C)c4)n3)ccc2[nH]1 [Form I, Form I N-(2-(dimethylamino)ethyl)-1-(3-((4-((2-methyl-1H-indol-5-yl)oxy)pyrimidin-2-yl)amino)phenyl)-methanesulfonamide] |  |  |  |  |  | physically and/or thermodynamically more stable than Form II | stable | non-hygroscopic | 
Cc1cc2cc(Oc3ccnc(Nc4cccc(CS(=O)(=O)NCCN(C)C)c4)n3)ccc2[nH]1 [Form II, Form II N-(2-(dimethylamino)ethyl)-1-(3-((4-((2-methyl-1H-indol-5-yl)oxy)pyrimidin-2-yl)amino)phenyl)methanesulfonamide] |  |  |  |  |  | transformed to the Form I | stable |  | slightly hygroscopic
Cc1cc2c(F)c(Nc3ccnc(Nc4cccc(OCCN5CCOCC5)c4)n3)ccc2[nH]1 [compound of Formula C, N^4-(4-fluoro-2-methyl-1H-indol-5-yl)-N^2-(3-(2-morpholinoethoxy)phenyl)pyrimidine-2,4-diamine, reference compound] | 547 nM |  | 111 nM |  |  |  |  |  | 
